Where “and” joins values, the source holds several entries; their conditions need not be identical. Identical values can stand only once. Entries after “also recorded” stand apart in the source; their conditions may differ.
Tests used:
[1] = In vitro stability in 0.1 M PBS (pH 7.4); format: physicochemical; conditions: 24 h incubation at 37 °C, purity by TLC
Method: The stability of [^77Br]2 and [^77Br]3 in 0.1 M phosphate-buffered saline (PBS) (pH 7.4) was high (93.6 ± 0.9% and 93.0 ± 0.6%, respectively). There was no significant decomposition after 24 h incubation at 37 °C for either radiotracer.
The stability of radiolabeled compounds, [^77Br]2 and [^77Br]3, were analyzed as described previously. The purities radiolabeled compounds were determined by TLC using chloroform/methanol = 5/1 and 20/1 as a developing solvent for [^77Br]2 and [^77Br]3, respectively. The results were confirmed by RP-HPLC.

[2] = tested on: BxPC3-luc cells (PDGFRβ-positive); experiment: Cellular uptake study (double tracer method); format: cell-based; conditions: BxPC3-luc (PDGFRβ-positive) vs MCF7 (PDGFRβ-negative), 0.5–4 h
Method: Figure 5 Cellular uptake study. Time-dependent accumulation of (a) [^77Br]2 and [^125I]4 (b) [^77Br]3 and [^125I]5 in BxPC3-luc and MCF7 cells. Data were presented as mean ± SD for three samples.
Radiotracer uptake experiments in tumor cells were performed using BxPC3-luc and MCF7 cell lines. To compare the uptake between radiobrominated compounds, [^77Br]2 and [^77Br]3, and the corresponding radioiodinated compounds, [^125I]4 and [^125I]5, the cellular uptake experiments were performed by a double tracer method as described previously with a slight modification[30],[31],[35]. Briefly, the cells were seeded in RPMI 1640 medium containing 10% FBS and antibiotics on six-well plates (2 × 10^5 cells/well) for 24 h in a 5% CO2 incubator at 37 °C. After removal of medium, cells were incubated in medium without FBS containing [^77Br]2 (3.7 kBq/well) and [^125I]4 (3.7 kBq/well) or [^77Br]3 (3.7 kBq/well) and [^125I]5 (3.7 kBq/well) and tween-80 (0.1%) for 0.5, 1, 2 and 4 h. Radioiodinated compounds were prepared as described previously][24]. Cells were washed with ice-cold 1 mL of PBS and dissolved using 0.5 mL of 1 M NaOH and wells were washed with 1 M NaOH aqueous solution (0.5 mL). The radioactivity of pooled basic fractions was counted by a gamma counter. A range between 16 and 71 keV was used for measuring ^125I and between 95 and 700 for ^77Br. When radioactivity of ^77Br was counted, the crossover of ^125I activity into the ^77Br channel was negligible. More than one month after the experiment, the radioactivity of ^125I was determined because at that time ^77Br has been decayed and its radioactivity was negligible. The protein in the cell was quantified by a BCA Protein Assay Kit. All data were expressed as %dose/µg protein.

[3] = Biodistribution in ddY mice; format: in vivo; conditions: i.v. co-injection
Method: In this study, to minimize both the number of mice consumed in the experiment and the potential for experimental errors, we co-injected radiobrominated and radioiodinated compounds into mice[30],[31]. High radioactivity in the liver, small intestine, and large intestine was observed.
(§1) Mice were intravenously injected via the tail with 100 µL of saline solution of [^77Br]2 and [^125I]4 or [^77Br]3 and [^125I]5 (74 kBq, respectively), containing 10% ethanol and 1% tween-80. The ddY mice were sacrificed at 10 min, 1, 4, and 24 h postinjection. Meanwhile, tumor-bearing mice were sacrificed at 1 h postinjection.
(§2) Tissues in mice were resected and weighed. The radioactivity of the tissues was counted by a gamma counter and counts were corrected for background radiation. The data were expressed as percent injection dose per gram tissue (%ID/g).

BxPC3-luc tumor = experiment: Biodistribution in BxPC3-luc tumor-bearing mice; format: in vivo, BALB/c nu/nu mice
Method: We investigated the biodistribution of the radiotracers in BxPC3-luc tumor-bearing mice by co-injecting [^77Br]2 with [^125I]4 (Table 3), and [^77Br]3 with [^125I]5 (Table 4).
Animal experiments were conducted in strict accordance with the Guidelines for the Care and Use of Laboratory Animals of Kanazawa University. The animal experimental protocols used were approved by the Committee on Animal Experimentation of Kanazawa University (Permit Number: AP-163766). The animals were housed with free access to food and water at approximately 23 °C with a 12 h light/dark schedule. ddY mice (six-week-old, male, 27–30 g) and BALB/c nu/nu mice (four-week-old, female, 12–17 g) were purchased from Japan SLC Inc. (Hamamatsu, Japan). For preparing the tumor-bearing mice, BxPC3-luc cells (5 × 10^6 cells) were subcutaneously injected into the left shoulder of BALB/c nu/nu mice. The tumor reached palpable size after two weeks of the inoculation.
as §1, §2

## COCCOc1ccc2c(c1)ncn2-c1ccc2c([77Br])ccc(N3CCC(N)CC3)c2n1 [[^77Br]2, [^77Br]1-{5-Bromo-2-[5-(2-methoxyethoxy)-1H-benzo[d]imidazol-1-yl]quinoline-8-yl}piperidin-4-amine]
[1]
  Stability in 0.1 M PBS (pH 7.4): 93.6 ± 0.9%
[2]
  Cellular uptake in BxPC3-luc cells: higher than that in MCF7 cells; also recorded: higher uptake of [^77Br]2 than that of [^77Br]3
[3]; 10 min
  Radioactivity in Blood: 0.99 (0.03) %injected dose/gram tissue
  Radioactivity in Bone: 2.81 (1.06) %injected dose/gram tissue
  Radioactivity in Brain: 0.12 (0.01) %injected dose/gram tissue
  Radioactivity in Heart: 4.41 (0.27) %injected dose/gram tissue
  Radioactivity in Kidney: 15.61 (1.32) %injected dose/gram tissue
  Radioactivity in Large intestine: 0.99 (0.10) %injected dose/gram tissue
  Radioactivity in Liver: 12.49 (0.64) %injected dose/gram tissue
  Radioactivity in Lung: 10.92 (0.55) %injected dose/gram tissue
  Radioactivity in Muscle: 2.24 (0.18) %injected dose/gram tissue
  Radioactivity in Pancreas: 4.18 (0.38) %injected dose/gram tissue
  Radioactivity in Small intestine: 8.58 (2.18) %injected dose/gram tissue
  Radioactivity in Spleen: 5.39 (0.40) %injected dose/gram tissue
  Radioactivity in Stomach: 1.74 (0.15) %injected dose /organ
[3]; 1 h
  Radioactivity in Blood: 0.28 (0.06) %injected dose/gram tissue
  Radioactivity in Bone: 1.15 (0.15) %injected dose/gram tissue
  Radioactivity in Brain: 0.10 (0.01) %injected dose/gram tissue
  Radioactivity in Heart: 1.15 (0.17) %injected dose/gram tissue
  Radioactivity in Kidney: 10.12 (3.49) %injected dose/gram tissue
  Radioactivity in Large intestine: 2.69 (0.65) %injected dose/gram tissue
  Radioactivity in Liver: 4.26 (1.37) %injected dose/gram tissue
  Radioactivity in Lung: 4.32 (0.84) %injected dose/gram tissue
  Radioactivity in Muscle: 0.92 (0.04) %injected dose/gram tissue
  Radioactivity in Pancreas: 2.98 (0.75) %injected dose/gram tissue
  Radioactivity in Small intestine: 29.51 (7.92) %injected dose/gram tissue
  Radioactivity in Spleen: 1.59 (0.28) %injected dose/gram tissue
  Radioactivity in Stomach: 1.62 (0.55) %injected dose /organ
[3]; 4 h
  Radioactivity in Blood: 0.20 (0.03) %injected dose/gram tissue
  Radioactivity in Bone: 1.50 (1.27) %injected dose/gram tissue
  Radioactivity in Brain: 0.09 (0.00) %injected dose/gram tissue
  Radioactivity in Heart: 0.58 (0.13) %injected dose/gram tissue
  Radioactivity in Kidney: 4.33 (0.75) %injected dose/gram tissue
  Radioactivity in Large intestine: 53.70 (8.89) %injected dose/gram tissue
  Radioactivity in Liver: 3.44 (0.98) %injected dose/gram tissue
  Radioactivity in Lung: 2.71 (1.06) %injected dose/gram tissue
  Radioactivity in Muscle: 0.44 (0.07) %injected dose/gram tissue
  Radioactivity in Pancreas: 1.63 (0.19) %injected dose/gram tissue
  Radioactivity in Small intestine: 4.76 (0.89) %injected dose/gram tissue
  Radioactivity in Spleen: 0.69 (0.24) %injected dose/gram tissue
  Radioactivity in Stomach: 0.81 (0.21) %injected dose /organ
[3]; 24 h
  Radioactivity in Blood: 0.12 (0.02) %injected dose/gram tissue
  Radioactivity in Bone: 0.55 (0.10) %injected dose/gram tissue
  Radioactivity in Brain: 0.07 (0.00) %injected dose/gram tissue
  Radioactivity in Heart: 0.29 (0.03) %injected dose/gram tissue
  Radioactivity in Kidney: 0.21 (0.05) %injected dose/gram tissue
  Radioactivity in Large intestine: 0.18 (0.03) %injected dose/gram tissue
  Radioactivity in Liver: 0.29 (0.08) %injected dose/gram tissue
  Radioactivity in Lung: 0.29 (0.05) %injected dose/gram tissue
  Radioactivity in Muscle: 0.22 (0.02) %injected dose/gram tissue
  Radioactivity in Pancreas: 0.41 (0.34) %injected dose/gram tissue
  Radioactivity in Small intestine: 0.07 (0.01) %injected dose/gram tissue
  Radioactivity in Spleen: 0.66 (0.77) %injected dose/gram tissue
  Radioactivity in Stomach: 0.11 (0.01) %injected dose /organ
BxPC3-luc tumor; 1 h postinjection
  Tumor-to-blood ratio of radioactivity: 2.8
BxPC3-luc tumor; i.v. co-injection, 1 h
  Radioactivity in Blood: 0.58 (0.10) %injected dose/gram of tissue
  Radioactivity in Bone: 1.15 (0.09) %injected dose/gram of tissue
  Radioactivity in Brain: 0.14 (0.03) %injected dose/gram of tissue
  Radioactivity in BxPC3-luc tumor: 1.61 %injected dose/gram of tissue and 1.61 ± 0.24 %injected dose/gram of tissue and 1.61 (0.24) %injected dose/gram of tissue
  Radioactivity in Heart: 1.88 (0.33) %injected dose/gram of tissue
  Radioactivity in Kidney: 17.39 (4.03) %injected dose/gram of tissue
  Radioactivity in Large intestine: 3.22 (0.40) %injected dose/gram of tissue
  Radioactivity in Liver: 11.07 (1.04) %injected dose/gram of tissue
  Radioactivity in Lung: 10.31 (1.91) %injected dose/gram of tissue
  Radioactivity in Muscle: 0.94 (0.08) %injected dose/gram of tissue
  Radioactivity in Pancreas: 6.61 (1.00) %injected dose/gram of tissue
  Radioactivity in Small intestine: 51.52 (9.93) %injected dose/gram of tissue
  Radioactivity in Spleen: 2.94 (0.54) %injected dose/gram of tissue
  Radioactivity in Stomach: 0.96 (0.20) %injected dose /organ
